Test results as given in the supplement of paper PMC13380429.

Key:
Settings in all cases: 72 h
Caco-2 [1] = assay: cell viability relative to DMSO; higher = less toxic
Calu-3 [2] = assay: as above
HepG2 [3] = assay: as above
U2OS [4] = assay: as above
Vero E6 [5] = assay: as above
Caco-2 [6] = assay: relative viability EC50 (midpoint between 100% and the lowest measured viability); higher = less toxic
Calu-3 [7] = assay: as above
HepG2 [8] = assay: as above
U2OS [9] = assay: as above
Vero E6 [10] = assay: as above
Caco-2 [11] = assay: drug sensitivity score (DSS) for viability; higher = more toxic; extreme values may be limits of the assay
Calu-3 [12] = assay: as above
HepG2 [13] = assay: as above
U2OS [14] = assay: as above
Vero E6 [15] = assay: as above

| Structure (SMILES) | cell viability (Caco-2 [1]; 1 nM) [%] | cell viability (Caco-2 [1]; 10 nM) [%] | cell viability (Caco-2 [1]; 100 nM) [%] | cell viability (Caco-2 [1]; 1000 nM) [%] | cell viability (Caco-2 [1]; 10000 nM) [%] | cell viability (Calu-3 [2]; 1 nM) [%] | cell viability (Calu-3 [2]; 10 nM) [%] | cell viability (Calu-3 [2]; 100 nM) [%] | cell viability (Calu-3 [2]; 1000 nM) [%] | cell viability (Calu-3 [2]; 10000 nM) [%] | cell viability (HepG2 [3]; 1 nM) [%] | cell viability (HepG2 [3]; 10 nM) [%] | cell viability (HepG2 [3]; 100 nM) [%] | cell viability (HepG2 [3]; 1000 nM) [%] | cell viability (HepG2 [3]; 10000 nM) [%] | cell viability (U2OS [4]; 1 nM) [%] | cell viability (U2OS [4]; 10 nM) [%] | cell viability (U2OS [4]; 100 nM) [%] | cell viability (U2OS [4]; 1000 nM) [%] | cell viability (U2OS [4]; 10000 nM) [%] | cell viability (Vero E6 [5]; 1 nM) [%] | cell viability (Vero E6 [5]; 10 nM) [%] | cell viability (Vero E6 [5]; 100 nM) [%] | cell viability (Vero E6 [5]; 1000 nM) [%] | cell viability (Vero E6 [5]; 10000 nM) [%] | relative viability EC50 (Caco-2 [6]) [µM] | relative viability EC50 (Calu-3 [7]) [µM] | relative viability EC50 (HepG2 [8]) [µM] | relative viability EC50 (U2OS [9]) [µM] | relative viability EC50 (Vero E6 [10]) [µM] | drug sensitivity score (Caco-2 [11]) | drug sensitivity score (Calu-3 [12]) | drug sensitivity score (HepG2 [13]) | drug sensitivity score (U2OS [14]) | drug sensitivity score (Vero E6 [15]) |
| --- | --- | --- | --- | --- | --- | --- | --- | --- | --- | --- | --- | --- | --- | --- | --- | --- | --- | --- | --- | --- | --- | --- | --- | --- | --- | --- | --- | --- | --- | --- | --- | --- | --- | --- | --- |
| c1ccc(CNc2nc(NCc3ccccc3)c3ccccc3n2)cc1 [DBeQ] | 95.7 | 112 | 94.5 | 100 | 28.8 | 105 | 103 | 91.2 | 93.7 | 9 | 104 | 96.1 | 100 | 96.6 | 8.4 | 97.6 | 102 | 97.1 | 90.5 | 8.2 | 99.8 | 98.9 | 95.5 | 94.1 | 19.8 | 3.17 | 2.61 | 2.89 | 2.31 | 2.57 | 3.9 | 6 | 5.5 | 6.7 | 5.4 |
| O=P(O)(O)CN(CCN(CP(=O)(O)O)CP(=O)(O)O)CP(=O)(O)O [EDTMP] | 98.2 | 95.5 | 95.4 | 105 | 104 | 105 | 100 | 96 | 97.1 | 99 | 88.5 | 96.3 | 96.5 | 92.2 | 106 | 99.8 | 95.9 | 102 | 97.8 | 104 | 96.1 | 99.8 | 102 | 98.2 | 91 | > 10 | > 10 | > 10 | > 10 | > 10 | 0 | 0 | 0 | 0 | 0 |
| C[C@@H](CCCCC(=O)Nc1ccc(C(F)(F)F)cc1)NCCc1c[nH]cn1 [HTMT] | 97.2 | 92.8 | 87 | 99.4 | 94.1 | 100 | 97.8 | 100 | 106 | 100 | 110 | 95.6 | 104 | 104 | 98 | 99.9 | 100 | 96.9 | 101 | 106 | 98.3 | 94.7 | 98 | 100 | 108 | > 10 | > 10 | > 10 | > 10 | > 10 | 0 | 0 | 0 | 0 | 0 |
